Each structure is given as a SMILES string.

The test system of one experiment is CAOV3. The experiment in a line: drug sensitivity score (DSS) from 5-point dose-response viability curve (DSS (area-under-curve based score)); higher = more sensitive (stronger growth inhibition or killing); extreme values may be limits of the assay. To be noted: exposure time: 72 h; concentration range: 5 concentrations over 10,000-fold range. Put shortly:
(§1)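 Viability of ovarian cancer and normal ovarian cell lines was read by CellTiter-Glo luminescence after 3 days at 37°C and 5% CO2 in 384-well plates holding 1,500 cells per well. Drugs had been dispensed in DMSO or water with an Echo 550 at five concentrations over a 10,000-fold range. Using Breeze software, a drug sensitivity score was assigned per cell line and drug, higher scores meaning more sensitive, and zero means no response.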
Compound `C[C@H]1C[C@@H]2[C@H]([C@@H](O)C[C@@]3(C)[C@H]2CC[C@]3(O)C(=O)CO)[C@@]2(C)C=CC(=O)C=C12` [Methylprednisolone] registered a drug sensitivity score of 0.

Turning to `CO[C@@H]1[C@H](N(C)C(=O)c2ccccc2)C[C@H]2O[C@]1(C)n1c3ccccc3c3c4c(c5c6ccccc6n2c5c31)C(=O)NC4` [Midostaurin], the drug sensitivity score amounted to 17.7.

`CNC(=O)c1nn(C)c2c1C(C)(C)Cc1cnc(Nc3ccc(N4CCN(C)CC4)cc3)nc1-2` [Milciclib] came in with a drug sensitivity score of 6.8.

As for `CCCCCCCCCCCCCCCCOP(=O)([O-])OCC[N+](C)(C)C` [Miltefosine], the drug sensitivity score was 12.8.

In the case of `CO[C@@]12[C@H](COC(N)=O)C3=C(C(=O)C(C)=C(N)C3=O)N1C[C@@H]1N[C@@H]12` [Mitomycin C], the drug sensitivity score was found to be 4.7.

Consider `Clc1ccc(C(c2ccccc2Cl)C(Cl)Cl)cc1` (stereo not given) [Mitotane], for which the drug sensitivity score turned out to be 0.

On to `O=C1c2c(O)ccc(O)c2C(=O)c2c(NCCNCCO)ccc(NCCNCCO)c21` [Mitoxantrone], for which the drug sensitivity score is 13.

As for `CCS(=O)(=O)Nc1ccc(Oc2ccc(F)cc2F)c(-c2cn(C)c(=O)c3[nH]ccc23)c1` [Mivebresib], the drug sensitivity score came out at 25.3.

Compound `Nc1ccccc1NC(=O)c1ccc(CNc2nccc(-c3cccnc3)n2)cc1` [Mocetinostat] came in with a drug sensitivity score of 7.1.

`CCNC(=O)C[C@@H]1N=C(c2ccc(Cl)cc2)c2cc(OC)ccc2-n2c(C)nnc21` [Molibresib] showed a drug sensitivity score of 8.4.

With `N#CCNC(=O)c1ccc(-c2ccnc(Nc3ccc(N4CCOCC4)cc3)n2)cc1` [Momelotinib], the drug sensitivity score is 0.9.

Consider `CC1(C)CNc2cc(NC(=O)c3cccnc3NCc3ccncc3)ccc21` [Motesanib], for which the drug sensitivity score amounted to 0.

For `CCCN(CCC)C(=O)C1=Cc2ccc(-c3ccc(C(=O)N4CCCC4)cc3)cc2N=C(N)C1` [Motolimod], the drug sensitivity score stood at 0.

`FC(F)(F)c1ccc(/C=C/c2nc(COc3ccc(CCCCn4ccnn4)cc3)co2)cc1` [Mubritinib]: the drug sensitivity score was 5.4.

For `Cc1cc(OCc2nnc(SC3CCCC3)n2-c2cccnc2)ccc1-c1ccc(S(C)(=O)=O)cc1` [NMS-873], the drug sensitivity score turned out to be 8.6.

`COc1ccc(-c2ccc3ncc4c(c3c2)n(-c2ccc(N3CCNCC3)c(C(F)(F)F)c2)c(=O)n4C)cn1` [NVP-BGT226] displayed a drug sensitivity score of 12.7.

As to `Cc1ccc(C(=O)Nc2cccc(C(F)(F)F)c2)cc1Nc1nc(-c2cccnc2)nc2c1cnn2C` [NVP-BHG712], the drug sensitivity score worked out at 0.

In turn, `COc1cc2c(cc1OC(C)C)[C@H](c1ccc(Cl)cc1)N(c1ccc(N(C)C[C@H]3CC[C@H](N4CCN(C)C(=O)C4)CC3)cc1)C(=O)C2` [NVP-CGM097] came in with a drug sensitivity score of 3.3.

`CN[C@@H](C)C(=O)N[C@H](C(=O)N1CCC[C@H]1c1nc(C(=O)c2ccc(F)cc2)cs1)C1CCCCC1` [NVP-LCL161]: the drug sensitivity score was found to be 14.4.

For the compound `Cn1c(Nc2ccc(C(F)(F)F)cc2)nc2cc(Oc3ccnc(-c4ncc(C(F)(F)F)[nH]4)c3)ccc21` [NVP-RAF265], the drug sensitivity score worked out at 2.2.

The compound `CC(=O)c1cc2c(o1)C(=O)c1ccccc1C2=O` [Napabucasin] registered a drug sensitivity score of 18.2.

The compound `CC1(C)CCC(c2ccc(Cl)cc2)=C(CN2CCN(c3ccc(C(=O)NS(=O)(=O)c4ccc(N[C@H](CCN5CCOCC5)CSc5ccccc5)c(S(=O)(=O)C(F)(F)F)c4)cc3)CC2)C1` [Navitoclax] showed a drug sensitivity score of 2.6.

For the compound `CN1C(=O)N[C@H](Cc2c[nH]c3c(Cl)cccc23)C1=O` [Necrostatin 2], the drug sensitivity score is 0.

In turn, `O=c1ncn2nc(Sc3ccc(F)cc3F)ccc2c1-c1c(Cl)cccc1Cl` [Neflamapimod] yielded a drug sensitivity score of 0.

For `COc1nc(N)nc2c1ncn2[C@@H]1O[C@H](CO)[C@@H](O)[C@@H]1O` [Nelarabine], the drug sensitivity score amounted to 0.

Turning to `CCOc1cc2ncc(C#N)c(Nc3ccc(OCc4ccccn4)c(Cl)c3)c2cc1NC(=O)/C=C/CN(C)C` [Neratinib], the drug sensitivity score was determined as 5.3.

Regarding `Cc1cn(-c2cc(NC(=O)c3ccc(C)c(Nc4nccc(-c5cccnc5)n4)c3)cc(C(F)(F)F)c2)cn1` [Nilotinib], the drug sensitivity score was found to be 0.

`CC1(C)NC(=O)N(c2ccc([N+](=O)[O-])c(C(F)(F)F)c2)C1=O` [Nilutamide]: the drug sensitivity score is 0.

Regarding `COC(=O)c1ccc2c(c1)NC(=O)/C2=C(\Nc1ccc(N(C)C(=O)CN2CCN(C)CC2)cc1)c1ccccc1` [Nintedanib], the drug sensitivity score came out at 0.2.

Regarding `NC(=O)c1cccc2cn(-c3ccc([C@@H]4CCCNC4)cc3)nc12` [Niraparib], the drug sensitivity score came to 3.4.

In a further experiment the test system is COV318. Described as above. To be noted: exposure time: 72 h; concentration range: 5 concentrations over 10,000-fold range. Put shortly:
as §1
On to `C[C@H]1C[C@@H]2[C@H]([C@@H](O)C[C@@]3(C)[C@H]2CC[C@]3(O)C(=O)CO)[C@@]2(C)C=CC(=O)C=C12` [Methylprednisolone], for which the drug sensitivity score was 1.3.

`CO[C@@H]1[C@H](N(C)C(=O)c2ccccc2)C[C@H]2O[C@]1(C)n1c3ccccc3c3c4c(c5c6ccccc6n2c5c31)C(=O)NC4` [Midostaurin]: the drug sensitivity score came to 8.1.

In turn, `CNC(=O)c1nn(C)c2c1C(C)(C)Cc1cnc(Nc3ccc(N4CCN(C)CC4)cc3)nc1-2` [Milciclib] had a drug sensitivity score of 6.5.

The compound `CCCCCCCCCCCCCCCCOP(=O)([O-])OCC[N+](C)(C)C` [Miltefosine] showed a drug sensitivity score of 4.7.

Regarding `CO[C@@]12[C@H](COC(N)=O)C3=C(C(=O)C(C)=C(N)C3=O)N1C[C@@H]1N[C@@H]12` [Mitomycin C], the drug sensitivity score stood at 0.

`Clc1ccc(C(c2ccccc2Cl)C(Cl)Cl)cc1` (stereo not given) [Mitotane] displayed a drug sensitivity score of 0.1.

`O=C1c2c(O)ccc(O)c2C(=O)c2c(NCCNCCO)ccc(NCCNCCO)c21` [Mitoxantrone] yielded a drug sensitivity score of 3.9.

`CCS(=O)(=O)Nc1ccc(Oc2ccc(F)cc2F)c(-c2cn(C)c(=O)c3[nH]ccc23)c1` [Mivebresib] yielded a drug sensitivity score of 6.4.

Regarding `Nc1ccccc1NC(=O)c1ccc(CNc2nccc(-c3cccnc3)n2)cc1` [Mocetinostat], the drug sensitivity score worked out at 8.1.

For the compound `CCNC(=O)C[C@@H]1N=C(c2ccc(Cl)cc2)c2cc(OC)ccc2-n2c(C)nnc21` [Molibresib], the drug sensitivity score worked out at 3.3.

In turn, `N#CCNC(=O)c1ccc(-c2ccnc(Nc3ccc(N4CCOCC4)cc3)n2)cc1` [Momelotinib] had a drug sensitivity score of 2.7.

`CC1(C)CNc2cc(NC(=O)c3cccnc3NCc3ccncc3)ccc21` [Motesanib] registered a drug sensitivity score of 1.1.

In the case of `CCCN(CCC)C(=O)C1=Cc2ccc(-c3ccc(C(=O)N4CCCC4)cc3)cc2N=C(N)C1` [Motolimod], the drug sensitivity score came to 2.3.

`FC(F)(F)c1ccc(/C=C/c2nc(COc3ccc(CCCCn4ccnn4)cc3)co2)cc1` [Mubritinib] returned a drug sensitivity score of 0.8.

As for `Cc1cc(OCc2nnc(SC3CCCC3)n2-c2cccnc2)ccc1-c1ccc(S(C)(=O)=O)cc1` [NMS-873], the drug sensitivity score came to 8.7.
